The results in this text go back to ChEMBL document CHEMBL5465560, “Selectivity Literature for EUbOPEN Chemogenomic Library” (2024).

Test [1] addresses Serine/threonine-protein kinase pim-2 (Homo sapiens, UniProt Q9P1W9). Put plainly: Selectivity interaction (Enzymatic assay (Eurofins)) EUB0001049a PIM2.
Test [2] deals with Substance-K receptor (Homo sapiens) (UniProt P21452). Put plainly: Selectivity interaction (Eurofins CEREP Diversity Profile (receptors and ion channels)) EUB0000279b TACR2. The note with it: at 10 µM.
For test [3], the target named is Cyclin-dependent kinase-like 1 (Homo sapiens) (UniProt Q00532). Kind of test: Selectivity interaction (KinomeScan (DiscoverX)) EUB0000045b CDKL1.
Test [4] has as its target AP2-associated protein kinase 1 (Homo sapiens, UniProt Q2M2I8). Kind of test: Selectivity interaction (KinomeScan (DiscoverX)) EUB0000666a AAK1. The note with it: at 10 µM.
The target in test [5] is Mitogen-activated protein kinase kinase kinase kinase 1 (Homo sapiens) (UniProt Q92918). Put plainly: Selectivity interaction (ActivX KiNativ screen (kinase selectivity in THP-1 cell lysates)) EUB0000639a MAP4K1. In kind it is subcellular. The conditions noted are these: lysate, at 5 µM.
Test [6] addresses Mitogen-activated protein kinase 7 (Homo sapiens) (UniProt Q13164). Put plainly: Selectivity interaction (ActivX KiNativ screen (kinase selectivity in THP-1 cell lysates)) EUB0000639a MAPK7. In kind it is subcellular. The note with it: lysate.
The target in test [7] is Serine/threonine-protein kinase N1 (Homo sapiens, UniProt Q16512). Kind of test: Selectivity interaction (ActivX KiNativ screen (kinase selectivity in THP-1 cell lysates)) EUB0000639a PKN1. In kind it is subcellular. The conditions noted are these: lysate, at 0.04 µM.
Test [8] addresses T1, Serine/threonine-protein kinase ULK3 (Homo sapiens) (UniProt Q6PHR2).
T1 sequence (whole entry): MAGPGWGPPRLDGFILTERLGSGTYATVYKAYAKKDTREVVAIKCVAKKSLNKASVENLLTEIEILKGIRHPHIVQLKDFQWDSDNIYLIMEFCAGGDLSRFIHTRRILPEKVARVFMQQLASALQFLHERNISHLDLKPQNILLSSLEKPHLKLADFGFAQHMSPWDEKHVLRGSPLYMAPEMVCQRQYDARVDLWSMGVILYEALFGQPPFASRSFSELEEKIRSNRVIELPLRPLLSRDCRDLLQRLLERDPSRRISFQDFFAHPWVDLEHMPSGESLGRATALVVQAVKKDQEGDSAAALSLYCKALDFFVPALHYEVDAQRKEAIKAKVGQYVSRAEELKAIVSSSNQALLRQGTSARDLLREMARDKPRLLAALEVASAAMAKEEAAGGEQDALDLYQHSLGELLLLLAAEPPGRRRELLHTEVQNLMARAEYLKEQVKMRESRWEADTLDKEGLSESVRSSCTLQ
Kind of test: Selectivity interaction (ActivX KiNativ screen (kinase selectivity in THP-1 cell lysates)) EUB0000639a ULK3. In kind it is subcellular. The note with it: lysate, at 0.2 µM.

A further test has as its target T2, Peregrin (Homo sapiens) (UniProt P55201).
T2 sequence (whole entry): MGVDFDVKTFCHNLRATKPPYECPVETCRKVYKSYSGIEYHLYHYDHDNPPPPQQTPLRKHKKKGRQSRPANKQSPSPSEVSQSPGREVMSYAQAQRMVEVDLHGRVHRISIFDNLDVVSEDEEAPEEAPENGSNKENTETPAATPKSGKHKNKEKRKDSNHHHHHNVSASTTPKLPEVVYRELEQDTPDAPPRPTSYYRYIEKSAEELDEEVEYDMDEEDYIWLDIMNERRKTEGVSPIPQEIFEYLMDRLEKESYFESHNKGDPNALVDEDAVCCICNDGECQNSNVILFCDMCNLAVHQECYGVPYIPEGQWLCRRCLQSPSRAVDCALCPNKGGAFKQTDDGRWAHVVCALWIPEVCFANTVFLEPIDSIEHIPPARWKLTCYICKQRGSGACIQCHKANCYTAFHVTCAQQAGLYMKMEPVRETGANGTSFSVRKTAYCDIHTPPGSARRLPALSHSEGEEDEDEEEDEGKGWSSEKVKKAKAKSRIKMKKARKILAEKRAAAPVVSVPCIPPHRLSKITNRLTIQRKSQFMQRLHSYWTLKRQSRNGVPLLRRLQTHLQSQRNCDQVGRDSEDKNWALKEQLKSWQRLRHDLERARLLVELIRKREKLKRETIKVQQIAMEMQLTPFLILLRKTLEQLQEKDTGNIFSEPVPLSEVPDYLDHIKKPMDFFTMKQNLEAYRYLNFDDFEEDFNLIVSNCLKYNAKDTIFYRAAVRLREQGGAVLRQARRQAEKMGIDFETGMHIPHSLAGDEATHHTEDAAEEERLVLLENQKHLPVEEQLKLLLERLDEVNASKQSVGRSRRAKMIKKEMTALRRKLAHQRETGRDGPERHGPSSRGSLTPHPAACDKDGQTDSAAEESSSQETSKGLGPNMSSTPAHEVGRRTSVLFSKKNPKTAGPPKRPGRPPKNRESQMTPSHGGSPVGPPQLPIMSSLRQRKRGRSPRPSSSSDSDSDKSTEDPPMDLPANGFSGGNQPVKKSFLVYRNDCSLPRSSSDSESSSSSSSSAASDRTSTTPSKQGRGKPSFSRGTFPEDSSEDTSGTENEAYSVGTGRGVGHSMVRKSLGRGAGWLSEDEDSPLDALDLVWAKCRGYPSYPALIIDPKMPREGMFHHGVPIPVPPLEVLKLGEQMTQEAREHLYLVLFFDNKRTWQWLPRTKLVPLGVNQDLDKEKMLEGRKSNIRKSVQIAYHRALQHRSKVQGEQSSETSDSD
Kind of test: Selectivity interaction (Human bromodomain panel (DSF assay)) EUB0000233b BRPF1. (In general: Differential scanning fluorimetry follows unfolding on heating by fluorescence.)

Test [9] deals with T3, Serine/threonine-protein kinase 4 (Homo sapiens) (UniProt Q13043).
T3 sequence (whole entry): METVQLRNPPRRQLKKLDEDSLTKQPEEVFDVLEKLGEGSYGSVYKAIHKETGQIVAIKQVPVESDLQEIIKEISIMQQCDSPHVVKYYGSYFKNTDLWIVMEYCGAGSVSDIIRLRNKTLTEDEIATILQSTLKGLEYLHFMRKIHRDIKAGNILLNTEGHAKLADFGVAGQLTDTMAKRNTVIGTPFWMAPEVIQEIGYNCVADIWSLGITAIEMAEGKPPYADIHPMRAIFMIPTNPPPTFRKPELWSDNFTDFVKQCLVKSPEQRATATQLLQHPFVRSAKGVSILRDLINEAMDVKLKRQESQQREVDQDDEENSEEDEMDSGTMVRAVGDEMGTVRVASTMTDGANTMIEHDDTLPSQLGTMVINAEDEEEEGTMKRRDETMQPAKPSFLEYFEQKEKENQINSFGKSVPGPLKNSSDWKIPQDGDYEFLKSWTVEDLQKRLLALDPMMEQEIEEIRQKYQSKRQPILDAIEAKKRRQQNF
Put plainly: Selectivity interaction (Kinase panel (DSF assay)) EUB0001559a STK4.

Test [10] relates to Leucine-rich repeat serine/threonine-protein kinase 2 (Homo sapiens), Q5S007 [G2019S]. The conditions noted are these: at 1 µM.
Chain of Leucine-rich repeat serine/threonine-protein kinase 2 (Homo sapiens), Q5S007 [G2019S] (Q5S007 whole entry G2019S): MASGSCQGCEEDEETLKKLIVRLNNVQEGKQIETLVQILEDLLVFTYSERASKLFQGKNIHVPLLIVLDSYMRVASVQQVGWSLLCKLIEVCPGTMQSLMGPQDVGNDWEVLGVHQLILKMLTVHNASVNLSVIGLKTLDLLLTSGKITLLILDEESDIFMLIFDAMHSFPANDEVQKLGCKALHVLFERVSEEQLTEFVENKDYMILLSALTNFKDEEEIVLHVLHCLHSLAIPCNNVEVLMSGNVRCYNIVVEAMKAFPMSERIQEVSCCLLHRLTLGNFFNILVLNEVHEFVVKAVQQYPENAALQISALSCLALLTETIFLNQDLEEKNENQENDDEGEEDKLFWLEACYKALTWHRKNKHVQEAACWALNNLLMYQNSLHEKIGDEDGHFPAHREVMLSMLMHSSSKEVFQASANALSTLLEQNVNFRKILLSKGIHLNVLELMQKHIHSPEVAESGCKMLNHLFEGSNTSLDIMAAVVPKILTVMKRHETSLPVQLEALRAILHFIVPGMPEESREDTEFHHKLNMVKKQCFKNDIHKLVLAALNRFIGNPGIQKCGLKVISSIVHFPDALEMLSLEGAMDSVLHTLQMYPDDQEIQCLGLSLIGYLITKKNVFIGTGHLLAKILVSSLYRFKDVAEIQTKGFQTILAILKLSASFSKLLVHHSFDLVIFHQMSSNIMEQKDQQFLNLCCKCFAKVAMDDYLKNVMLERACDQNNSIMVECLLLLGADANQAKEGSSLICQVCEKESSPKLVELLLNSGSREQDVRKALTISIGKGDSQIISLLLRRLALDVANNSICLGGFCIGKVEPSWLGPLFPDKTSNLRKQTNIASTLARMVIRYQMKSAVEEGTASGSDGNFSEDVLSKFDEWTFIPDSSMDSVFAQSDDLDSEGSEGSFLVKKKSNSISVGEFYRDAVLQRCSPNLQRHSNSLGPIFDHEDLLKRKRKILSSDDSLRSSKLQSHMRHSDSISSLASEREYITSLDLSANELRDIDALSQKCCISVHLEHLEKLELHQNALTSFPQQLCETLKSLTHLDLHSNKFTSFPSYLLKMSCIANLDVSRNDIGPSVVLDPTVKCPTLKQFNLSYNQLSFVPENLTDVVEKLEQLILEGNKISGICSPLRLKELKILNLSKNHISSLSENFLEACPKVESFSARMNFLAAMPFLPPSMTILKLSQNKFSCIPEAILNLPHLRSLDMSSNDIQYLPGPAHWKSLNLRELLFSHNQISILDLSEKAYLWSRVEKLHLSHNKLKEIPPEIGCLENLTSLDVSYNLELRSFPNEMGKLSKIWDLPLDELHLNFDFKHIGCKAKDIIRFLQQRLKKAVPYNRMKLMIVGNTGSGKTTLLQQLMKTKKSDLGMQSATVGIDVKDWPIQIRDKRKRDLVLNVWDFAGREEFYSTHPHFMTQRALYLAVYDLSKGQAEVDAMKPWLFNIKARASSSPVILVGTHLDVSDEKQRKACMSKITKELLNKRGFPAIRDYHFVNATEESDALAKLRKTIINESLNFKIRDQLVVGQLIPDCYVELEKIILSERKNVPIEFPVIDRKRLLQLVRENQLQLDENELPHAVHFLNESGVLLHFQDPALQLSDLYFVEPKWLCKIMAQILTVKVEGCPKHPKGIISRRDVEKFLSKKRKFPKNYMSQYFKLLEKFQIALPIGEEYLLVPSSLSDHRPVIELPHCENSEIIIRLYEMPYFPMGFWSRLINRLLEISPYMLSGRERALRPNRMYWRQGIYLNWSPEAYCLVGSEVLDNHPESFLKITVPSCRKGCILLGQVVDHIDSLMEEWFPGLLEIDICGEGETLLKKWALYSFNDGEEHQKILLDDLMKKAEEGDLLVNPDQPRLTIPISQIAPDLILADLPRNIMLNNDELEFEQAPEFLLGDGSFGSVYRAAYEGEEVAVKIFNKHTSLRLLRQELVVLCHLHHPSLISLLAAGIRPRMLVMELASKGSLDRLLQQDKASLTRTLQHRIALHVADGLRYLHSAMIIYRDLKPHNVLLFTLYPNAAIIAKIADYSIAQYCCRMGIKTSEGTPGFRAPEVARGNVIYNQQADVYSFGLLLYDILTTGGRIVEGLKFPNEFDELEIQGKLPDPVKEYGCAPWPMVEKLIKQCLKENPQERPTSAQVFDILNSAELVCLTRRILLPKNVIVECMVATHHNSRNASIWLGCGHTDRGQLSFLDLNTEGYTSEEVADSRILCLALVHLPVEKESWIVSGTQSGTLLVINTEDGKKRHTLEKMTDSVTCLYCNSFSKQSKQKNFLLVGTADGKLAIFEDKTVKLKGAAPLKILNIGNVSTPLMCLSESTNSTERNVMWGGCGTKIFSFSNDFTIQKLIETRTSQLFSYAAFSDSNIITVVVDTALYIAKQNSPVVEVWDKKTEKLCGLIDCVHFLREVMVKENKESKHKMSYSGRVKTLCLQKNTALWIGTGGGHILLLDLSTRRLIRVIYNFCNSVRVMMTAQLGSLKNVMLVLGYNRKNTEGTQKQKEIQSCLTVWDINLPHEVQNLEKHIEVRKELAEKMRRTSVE

Chain of Mitogen-activated protein kinase 7 (Homo sapiens) (Q13164 2-816 limits assumed): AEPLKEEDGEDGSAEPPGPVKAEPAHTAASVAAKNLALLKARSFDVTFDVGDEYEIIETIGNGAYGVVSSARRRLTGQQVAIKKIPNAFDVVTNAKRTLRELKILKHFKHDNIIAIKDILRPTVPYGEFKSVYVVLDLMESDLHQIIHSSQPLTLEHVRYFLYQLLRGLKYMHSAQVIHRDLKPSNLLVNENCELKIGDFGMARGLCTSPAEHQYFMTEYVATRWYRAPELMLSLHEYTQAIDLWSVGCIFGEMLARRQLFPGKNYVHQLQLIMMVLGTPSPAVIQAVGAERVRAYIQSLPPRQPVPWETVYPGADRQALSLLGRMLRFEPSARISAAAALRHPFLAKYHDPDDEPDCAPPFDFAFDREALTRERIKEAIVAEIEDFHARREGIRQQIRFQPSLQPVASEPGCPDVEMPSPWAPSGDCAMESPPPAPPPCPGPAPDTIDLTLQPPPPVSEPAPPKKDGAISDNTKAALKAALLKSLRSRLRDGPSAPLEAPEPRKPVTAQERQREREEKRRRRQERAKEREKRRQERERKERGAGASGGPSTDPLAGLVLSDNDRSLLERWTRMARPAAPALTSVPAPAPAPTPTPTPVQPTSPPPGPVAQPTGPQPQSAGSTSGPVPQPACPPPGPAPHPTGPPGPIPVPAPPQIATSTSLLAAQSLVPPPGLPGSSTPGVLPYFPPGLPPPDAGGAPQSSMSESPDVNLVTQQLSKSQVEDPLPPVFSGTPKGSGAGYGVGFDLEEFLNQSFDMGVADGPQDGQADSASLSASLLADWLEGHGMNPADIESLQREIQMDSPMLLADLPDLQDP
Chain of Cyclin-dependent kinase-like 1 (Homo sapiens) (Q00532 whole entry): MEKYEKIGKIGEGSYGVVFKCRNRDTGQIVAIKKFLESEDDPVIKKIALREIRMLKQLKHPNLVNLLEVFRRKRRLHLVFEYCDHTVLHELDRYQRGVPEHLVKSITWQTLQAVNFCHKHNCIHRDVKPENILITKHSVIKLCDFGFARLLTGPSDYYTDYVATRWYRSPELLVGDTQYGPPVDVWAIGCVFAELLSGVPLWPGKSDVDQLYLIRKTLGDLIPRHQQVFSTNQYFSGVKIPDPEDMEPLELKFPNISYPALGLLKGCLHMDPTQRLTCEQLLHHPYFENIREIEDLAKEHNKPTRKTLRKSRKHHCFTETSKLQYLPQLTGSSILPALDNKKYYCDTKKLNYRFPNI
Chain of Mitogen-activated protein kinase kinase kinase kinase 1 (Homo sapiens) (Q92918 whole entry, looked up): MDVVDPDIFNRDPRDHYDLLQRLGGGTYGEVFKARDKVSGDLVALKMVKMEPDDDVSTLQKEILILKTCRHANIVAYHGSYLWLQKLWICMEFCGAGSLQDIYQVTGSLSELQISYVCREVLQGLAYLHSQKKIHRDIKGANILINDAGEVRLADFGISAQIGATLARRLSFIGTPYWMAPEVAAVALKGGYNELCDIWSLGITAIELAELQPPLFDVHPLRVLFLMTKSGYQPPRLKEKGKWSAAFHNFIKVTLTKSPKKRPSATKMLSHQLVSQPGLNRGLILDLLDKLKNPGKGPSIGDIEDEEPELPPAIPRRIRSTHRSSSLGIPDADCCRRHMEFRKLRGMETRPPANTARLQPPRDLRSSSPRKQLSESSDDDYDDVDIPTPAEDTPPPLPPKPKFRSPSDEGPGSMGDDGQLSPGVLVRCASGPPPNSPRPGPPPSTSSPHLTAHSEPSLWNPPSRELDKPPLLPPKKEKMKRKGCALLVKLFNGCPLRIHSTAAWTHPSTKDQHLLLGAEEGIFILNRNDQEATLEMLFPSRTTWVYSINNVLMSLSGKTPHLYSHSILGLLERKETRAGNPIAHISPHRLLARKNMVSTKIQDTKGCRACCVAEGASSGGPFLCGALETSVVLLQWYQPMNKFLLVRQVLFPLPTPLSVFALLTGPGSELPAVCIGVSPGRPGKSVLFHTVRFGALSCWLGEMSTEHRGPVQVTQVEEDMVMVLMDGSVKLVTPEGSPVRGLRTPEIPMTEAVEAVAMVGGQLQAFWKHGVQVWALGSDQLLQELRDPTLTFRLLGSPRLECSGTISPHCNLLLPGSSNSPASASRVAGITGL
Chain of Substance-K receptor (Homo sapiens) (P21452 whole entry): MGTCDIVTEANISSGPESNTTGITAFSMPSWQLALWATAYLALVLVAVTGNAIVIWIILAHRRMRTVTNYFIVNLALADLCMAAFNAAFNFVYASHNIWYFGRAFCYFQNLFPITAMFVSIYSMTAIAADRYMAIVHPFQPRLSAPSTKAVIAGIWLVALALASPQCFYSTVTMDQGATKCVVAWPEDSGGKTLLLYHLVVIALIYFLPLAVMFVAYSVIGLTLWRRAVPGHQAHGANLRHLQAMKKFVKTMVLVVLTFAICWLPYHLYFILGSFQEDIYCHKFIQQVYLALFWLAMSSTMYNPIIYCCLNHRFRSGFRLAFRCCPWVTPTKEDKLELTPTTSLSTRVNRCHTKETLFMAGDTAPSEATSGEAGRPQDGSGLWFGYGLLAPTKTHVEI

Take `COc1cc(Nc2nc(C)cc(-c3cnn4nc(OC)ccc34)n2)cc(C(F)(F)F)c1`: in [1], the IC50 was more than 10 µM.
Regarding `CC(=O)c1cc(-c2ccccc2OCC2CC2)c2ncccn12`, in [2], the % of control came to 92%.
Turning to `C=CC(=O)Nc1cc(-n2c(=O)ccc3cnc4ccc(-c5ccc(NS(C)(=O)=O)cc5)cc4c32)ccc1C`, the % of control in test [3] (at 1 µM) was 100%; in test [3] (at 10 µM) it was 58%.
As for `O=C(NOC[C@H](O)CO)c1ccc(F)c(F)c1Nc1ccc(I)cc1F`, the % of control in [4] is 100%.
As to `CC[C@@H]1[C@H](F)C(=O)N[C@@H]1COc1nccc2cc(C(N)=O)c(OC)cc12` [ZIMLOVISERTIB], the % of inhibition in test [5] is -4.3%; in test [6] (at 0.01 µM), -4.2%; in test [6] (at 0.04 µM) it was 1.9%; in test [6] (at 0.2 µM), -8.8%; in [6] (at 1 µM), -11.9%; in [6] (at 5 µM), 15.7%. In addition, the % of inhibition in test [7] was -5.1%; in test [8] it was -8.1%.
In turn, `CN(C)CCCOc1ccc(-c2cc(NCCCn3cccn3)nc(S(C)(=O)=O)n2)cc1` registered a dTM on Peregrin (Homo sapiens) of less than 2 K.
On to `CN(C(=O)c1cnn2cccnc12)c1cc2c(cc1N1CCOCC1)C(=O)N(C[C@@H](F)C(C)(C)O)C2`, for which the dTM in [9] is -0.1 K.
`N#Cc1cccc(-c2c[nH]c3ncnc(N4CCOCC4)c23)c1` came in with a % of control in [10] of 75%.

As usually defined, the IC50 is the concentration needed to halve the response being measured. A low value points to higher potency.
